pIC50: −log10 of the molar value. Where a name gives a salt, the structure may show the parent alone.
test system: KMS.12.BM cells; assay: KMS.12.BM cell viability assay; type: cell-based; details: 72 h; KMS.12.BM human myeloma cells, 3 days, Cell Titer-GLO ATP quantitation; read-out: KMS cellular IC50
Procedure: KMS.12.BM cell line (human myeloma) was purchased from JCRB (Osaka, Japan) and maintained in RPMI with 10% FBS culture medium. To measure the cytotoxic activity of the compounds through ATP quantitation, the KMS.12.BM cells are plated in the RPMI culture medium at 5000 cells/well/per 100 μL into a 96-well polystyrene clear black tissue culture plate (Greiner-bio-one through VWR, NJ), in the presence or absence of a concentration range of test compounds. After 3 days, […] Cell Titer-GLO Luminescent (Promega, Madison, Wis.) cell culture agent is added to each well for 10 minutes at room temperature to stabilize the luminescent signal. This determines the number of viable cells in culture based on quantitation of the ATP present, which signals the presence of metabolically active cells. Luminescence is measured with the Top Count 384 (Packard Bioscience through Perkin Elmer, Boston, Mass.).
IC50 data for the Examples is presented in Table 4 as determined by Assay B1.

Compound	pIC50
Cc1nnc2ccc3c(ccn3C(C)c3ccccc3)n12 (racemic) [Example 4, 1-methyl-6-(1-phenylethyl)-6H-pyrrolo[2,3-e][1,2,4]triazolo[4,3-a]pyridine]	5.00 to 6.00
CCCCC(c1ccccc1)n1c(C)cc2c1ccc1nnc(C)n12 (racemic) [Example 24, 1,7-dimethyl-6-(1-phenylpentyl)-6H-pyrrolo[2,3-e][1,2,4]triazolo[4,3-a]pyridine]	5.00 to 6.00
Cc1nnc2ccc3c(cc(-c4ccn(C(C)CC#N)n4)n3Cc3ccccc3)n12 (racemic) [Example 87, 3-[3-(6-benzyl-1-methyl-6H-pyrrolo[2,3-e][1,2,4]triazolo[4,3-a]pyridin-7-yl)-1H-pyrazol-1-yl]butanenitrile trifluoroacetate salt (racemate)]	≥ 6.00
Cc1nnc2ccc3c(cc(-c4ccn(CC(C)C#N)n4)n3Cc3ccccc3)n12 (racemic) [Example 88, 3-[3-(6-benzyl-1-methyl-6H-pyrrolo[2,3-e][1,2,4]triazolo[4,3-a]pyridin-7-yl)-1H-pyrazol-1-yl]-2-methylpropanenitrile trifluoroacetate salt (racemate)]	≥ 6.00
Cc1cc2c(cc(NC3CCCN(C)C3)c3nnc(C)n32)n1Cc1ccccc1 (racemic) [Example 144, 6-benzyl-1,7-dimethyl-N-(1-methylpiperidin-3-yl)-6H-pyrrolo[2,3-e][1,2,4]triazolo[4,3-a]pyridin-4-amine (racemic)]	5.00 to 6.00
Cc1cc2c(cc(NC3CCN(C)C3)c3nnc(C)n32)n1Cc1ccccc1 (racemic) [Example 145, 6-benzyl-1,7-dimethyl-N-(1-methylpyrrolidin-3-yl)-6H-pyrrolo[2,3-e][1,2,4]triazolo[4,3-a]pyridin-4-amine bis(trifluoroacetate) salt (racemic)]	≥ 6.00
Cc1nnc2ccc3c(cc(-c4ncco4)n3Cc3cc(Cl)cc(CN4CCC(O)C4)c3)n12 (racemic) [Example 199, 1-(3-Chloro-5-{[1-methyl-7-(1,3-oxazol-2-yl)-6H-pyrrolo[2,3-e][1,2,4]triazolo[4,3-a]pyridin-6-yl]methyl}benzyl)pyrrolidin-3-ol bis(trifluoroacetate) salt (racemic)]	≥ 6.00
Cc1cc2c(cc(N[C@H]3CCN(C)[C@H](C)C3)c3nnc(C)n32)n1Cc1ccccc1 (racemic) [Example 225, 6-Benzyl-N-[(2R,4S)-1,2-dimethylpiperidin-4-yl]-1,7-dimethyl-6H-pyrrolo[2,3-e][1,2,4]triazolo[4,3-a]pyridin-4-amine and 6-Benzyl-N-[(2S,4R)-1,2-dimethylpiperidin-4-yl]-1,7-dimethyl-6H-pyrrolo[2,3-e][1,2,4]triazolo[4,3-a]pyridin-4-amine]	≥ 6.00
Cc1cc2c(cc(N[C@H]3CC[C@@H](C#N)CC3)c3nnc(C)n32)n1Cc1ccccc1 (single isomer, unassigned) [Example 215 b, 4-[(6-benzyl-1,7-dimethyl-6H-pyrrolo[2,3-e][1,2,4]triazolo[4,3-a]pyridin-4-yl)amino]cyclohexanecarbonitrile trifluoroacetate salt]	5.00 to 6.00
Cc1nnc2ccc3c(ccn3Cc3ccccc3)n12 [Example 1, 6-benzyl-1-methyl-6H-pyrrolo[2,3-e][1,2,4]triazolo[4,3-a]pyridine]	5.00 to 6.00
Cc1cc2c(ccc3nnc(C)n32)n1Cc1ccccc1 [Example 2, 6-benzyl-1,7-dimethyl-6H-pyrrolo[2,3-e][1,2,4]triazolo[4,3-a]pyridine]	≥ 6.00
Cc1cc2c(ccc3nnc(C)n32)n1S(=O)(=O)c1ccccc1 [Example 2a, 1,7-dimethyl-6-(phenylsulfonyl)-6H-pyrrolo[2,3-e][1,2,4]triazolo[4,3-a]pyridine]	5.00 to 6.00
Cc1nnc2ccc3c(ccn3S(=O)(=O)c3ccccc3)n12 [Example 3, 1-methyl-6-(phenylsulfonyl)-6H-pyrrolo[2,3-e][1,2,4]triazolo[4,3-a]pyridine]	5.00 to 6.00
Cc1cc2c(ccc3nnc(C)n32)n1CCc1ccccc1 [Example 6, 1,7-dimethyl-6-(2-phenylethyl)-6H-pyrrolo[2,3-e][1,2,4]triazolo[4,3-a]pyridine]	5.00 to 6.00
Cc1cc2c(ccc3nnc(C)n32)n1Cc1ccccn1 [Example 7, 1,7-dimethyl-6-(pyridin-2-ylmethyl)-6H-pyrrolo[2,3-e][1,2,4]triazolo[4,3-a]pyridine]	5.00 to 6.00
Cc1cc2c(ccc3nnc(C)n32)n1Cc1ccccc1Cl [Example 8, 6-(2-chlorobenzyl)-1,7-dimethyl-6H-pyrrolo[2,3-e][1,2,4]triazolo[4,3-a]pyridine]	≥ 6.00
Cc1cc2c(ccc3nnc(C)n32)n1Cc1cccc(Cl)c1 [Example 9, 6-(3-chlorobenzyl)-1,7-dimethyl-6H-pyrrolo[2,3-e][1,2,4]triazolo[4,3-a]pyridine]	≥ 6.00
Cc1cc2c(ccc3nnc(C)n32)n1Cc1ccc(Cl)cc1 [Example 10, 6-(4-chlorobenzyl)-1,7-dimethyl-6H-pyrrolo[2,3-e][1,2,4]triazolo[4,3-a]pyridine]	≥ 6.00

Compound	pIC50
Cc1cc2c(ccc3nnc(C)n32)n1Cc1cccnc1 [Example 11, 1,7-dimethyl-6-(pyridin-3-ylmethyl)-6H-pyrrolo[2,3-e][1,2,4]triazolo[4,3-a]pyridine]	5.00 to 6.00
Cc1cc2c(ccc3nnc(C)n32)n1CC1CCCC1 [Example 13, 6-(cyclopentylmethyl)-1,7-dimethyl-6H-pyrrolo[2,3-e][1,2,4]triazolo[4,3-a]pyridine]	5.00 to 6.00
Cc1cc2c(ccc3nnc(C)n32)n1Cc1ccccc1F [Example 14, 6-(2-fluorobenzyl)-1,7-dimethyl-6H-pyrrolo[2,3-e][1,2,4]triazolo[4,3-a]pyridine]	≥ 6.00
Cc1cc2c(ccc3nnc(C)n32)n1Cc1cccc(F)c1 [Example 15, 6-(3-fluorobenzyl)-1,7-dimethyl-6H-pyrrolo[2,3-e][1,2,4]triazolo[4,3-a]pyridine]	≥ 6.00
Cc1cc2c(ccc3nnc(C)n32)n1Cc1ccc(F)cc1 [Example 16, 6-(4-fluorobenzyl)-1,7-dimethyl-6H-pyrrolo[2,3-e][1,2,4]triazolo[4,3-a]pyridine]	≥ 6.00
Cc1ccccc1Cn1c(C)cc2c1ccc1nnc(C)n12 [Example 17, 1,7-dimethyl-6-(2-methylbenzyl)-6H-pyrrolo[2,3-e][1,2,4]triazolo[4,3-a]pyridine]	≥ 6.00
Cc1cccc(Cn2c(C)cc3c2ccc2nnc(C)n23)c1 [Example 18, 1,7-dimethyl-6-(3-methylbenzyl)-6H-pyrrolo[2,3-e][1,2,4]triazolo[4,3-a]pyridine]	≥ 6.00
Cc1ccc(Cn2c(C)cc3c2ccc2nnc(C)n23)cc1 [Example 19, 1,7-dimethyl-6-(4-methylbenzyl)-6H-pyrrolo[2,3-e][1,2,4]triazolo[4,3-a]pyridine]	≥ 6.00
Cc1cc2c(ccc3nnc(C)n32)n1Cc1cccc(C#N)c1 [Example 20, 3-[(1,7-dimethyl-6H-pyrrolo[2,3-e][1,2,4]triazolo[4,3-a]pyridine-6-yl)methyl]benzonitrile]	≥ 6.00
Cc1cc2c(ccc3nnc(C)n32)n1Cc1ccc2ccccc2n1 [Example 21, 1,7-dimethyl-6-(quinolin-2-ylmethyl)-6H-pyrrolo[2,3-e][1,2,4]triazolo[4,3-a]pyridine]	≥ 6.00
COc1cccc(Cn2c(C)cc3c2ccc2nnc(C)n23)c1 [Example 22, 6-(3-methoxybenzyl)-1,7-dimethyl-6H-pyrrolo[2,3-e][1,2,4]triazolo[4,3-a]pyridine]	≥ 6.00
Cc1cc2c(ccc3nnc(C)n32)n1Cc1cccc(O)c1 [Example 23, 3-[(1,7-dimethyl-6H-pyrrolo[2,3-e][1,2,4]triazolo[4,3-a]pyridin-6-yl)methyl]phenol]	≥ 6.00
CC(=O)Nc1cccc(Cn2c(C)cc3c2ccc2nnc(C)n23)c1 [Example 25, N-{3-[(1,7-dimethyl-6H-pyrrolo[2,3-e][1,2,4]triazolo[4,3-a]pyridin-6-yl)methyl]phenyl}acetamide trifluoroacetate salt]	≥ 6.00
Cc1cc2c(ccc3nnc(C)n32)n1Cc1cccc(CO)c1 [Example 26, {3-[(1,7-dimethyl-6H-pyrrolo[2,3-e][1,2,4]triazolo[4,3-a]pyridin-6-yl)methyl]phenyl}methanol trifluoroacetate salt]	≥ 6.00
Cc1cc2c(ccc3nnc(C)n32)n1Cc1cccc(CN2CC(O)C2)c1 [Example 27, 1-(3-((1,7-dimethyl-6H-pyrrolo[2,3-e][1,2,4]triazolo[4,3-a]pyridin-6-yl)methyl)benzyl)azetidin-3-ol bis-trifluoroacetate salt]	≥ 6.00
Cc1cc2c(ccc3nnc(C)n32)n1Cc1cccc(CN2CCC2)c1 [Example 28, 6-[3-(azetidin-1-ylmethyl)benzyl]-1,7-dimethyl-6H-pyrrolo[2,3-e][1,2,4]triazolo[4,3-a]pyridine]	≥ 6.00
Cc1cc2c(ccc3nnc(C)n32)n1Cc1cccc(C(N)=O)c1 [Example 30, 3-((1,7-dimethyl-6H-pyrrolo[2,3-e][1,2,4]triazolo[4,3-a]pyridin-6-yl)methyl)benzamide trifluoroacetate salt]	5.00 to 6.00
Cc1cc2c(ccc3nnc(C)n32)n1Cc1cccc(C(=O)NO)c1 [Example 31, 3-[(1,7-dimethyl-6H-pyrrolo[2,3-e][1,2,4]triazolo[4,3-a]pyridin-6-yl)methyl]-N-hydroxybenzamide trifluoroacetate salt]	5.00 to 6.00

Reference: US10442803B2, “Tricyclic heterocycles as bet protein inhibitors” (Incyte Corporation, priority 2013, dated 2019)
